# Target: T1, GST-tagged-Wee1 kinase (Homo sapiens, UniProt P30291)
# T1 construct: purchased Carnabio 05-177
# Assay: Wee1 time-resolved fluorescence equilibrium binding assay (displacement of Oregon Green-labeled ATP-competitive probe)
# Settings: TR-FRET probe displacement; 2 nM GST-Wee1, 300 nM probe, 1 hour incubation; read-out: Wee-1 binding (Ki nM)
# Method: Wee1 kinase was assayed using a time-resolved fluorescence equilibrium binding assay monitoring displacement of a rapidly reversible Oregon Green-labeled ATP-competitive kinase probe (N-(2-(2-(2-(4-(4-(5-chloro-4-(2-(1-hydroxycyclobutyl)thiazol-5-yl)-1H-pyrrolo[2,3-b]pyridin-2-yl)phenyl)piperazin-1-yl)ethoxy)ethoxy)ethyl)-2′,7′-difluoro-3′,6′-dihydroxy-3-oxo-3H-spiro[isobenzofuran-1,9′-xanthene]-5-carboxamide) by competitive Wee1 inhibitors.
# T1 sequence (P30291 whole entry): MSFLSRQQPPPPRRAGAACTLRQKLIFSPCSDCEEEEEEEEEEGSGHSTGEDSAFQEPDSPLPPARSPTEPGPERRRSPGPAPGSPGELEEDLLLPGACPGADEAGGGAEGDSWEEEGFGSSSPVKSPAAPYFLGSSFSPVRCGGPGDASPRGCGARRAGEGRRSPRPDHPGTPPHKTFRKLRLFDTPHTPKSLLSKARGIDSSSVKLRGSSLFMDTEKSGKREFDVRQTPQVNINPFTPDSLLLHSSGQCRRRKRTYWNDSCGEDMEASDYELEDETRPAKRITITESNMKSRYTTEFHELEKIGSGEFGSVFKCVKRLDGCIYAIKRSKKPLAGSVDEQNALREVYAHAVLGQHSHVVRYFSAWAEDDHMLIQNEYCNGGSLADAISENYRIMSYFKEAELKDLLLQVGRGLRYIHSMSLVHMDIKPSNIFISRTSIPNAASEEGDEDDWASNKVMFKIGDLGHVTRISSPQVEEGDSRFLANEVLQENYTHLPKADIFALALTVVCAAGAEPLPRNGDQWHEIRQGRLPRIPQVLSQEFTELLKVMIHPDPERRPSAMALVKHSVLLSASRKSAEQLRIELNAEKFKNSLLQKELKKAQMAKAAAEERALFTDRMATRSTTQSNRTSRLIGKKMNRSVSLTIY
row,SMILES,Ki [nM]
1,"C=CCN1c2ccccc2-c2nc(Nc3ccc(OCCN(CC)CC)cc3)ncc2S1(=O)=O [Example 3, 6-allyl-N-{4-[2-(diethylamino)ethoxy]phenyl}-6H-pyrimido[5,4-c][2,1]benzothiazin-2-amine 5,5-dioxide]",4.8
2,"CCCN1c2cc(-c3cccnc3)ccc2-c2nc(Nc3ccc(N4CCN(C)CC4)cc3)ncc2S1(=O)=O [Example 69, N-[4-(4-methylpiperazin-1-yl)phenyl]-6-propyl-8-(pyridin-3-yl)-6H-pyrimido[5,4-c][2,1]benzothiazin-2-amine 5,5-dioxide]",4
3,"CN1c2ccccc2-c2nc(Nc3ccc(N4CCOCC4)cc3)ncc2S1(=O)=O [Example 57, 6-methyl-N-[4-(morpholin-4-yl)phenyl]-6H-pyrimido[5,4-c][2,1]benzothiazin-2-amine 5,5-dioxide]",12

# Source: patent publication US8716297B2, “Chemical entities to be used for Wee1 inhibition for the treatment of cancer” (AbbVie Inc., priority 2011, dated 2014)
